Results as given in EP0063525A1, “Dibenzazepine tetracyclic derivatives, process for their preparation and pharmaceutical compositions containing them” (CENTRE NATIONAL DE LA RECHERCHE SCIENTIFIQUE (CNRS), priority 1981, dated 1982).
Like-named read-outs stand apart in the source and are kept apart here.

Columns and labels:
Souris [1] = assay: tetrabenazine ptosis; assay type: in vivo
Procedure: (§1) Ce test permet de révéler également une activité antidépressive avec l'avantage d'une lecture plus rapide qu'avec la réserpine.
(§2) Les souris sont réparties par lots de 5.
Le ptosis est noté avant l'injection de tétrabénazine, 30 minutes, 60 minutes, 90 minutes et 120 minutes après.
On a adopté la notation suivante : • - 0 : pour un oeil ouvert, • - 1 : pour un oeil fermé au quart, • - 2 : pour un oeil fermé à moitié, • - 3 : pour un oeil fermé aux trois-quarts, • - 4 : pour un oeil fermé complètement.
(§3) Le lot témoin comprend 20 souris.

Souris [2] = assay: antireserpine activity: reserpine hypothermia; assay type: in vivo; settings: réserpine 5 mg/kg i.p. 17 h before
Procedure: On note ensuite les températures témoins (réserpine), puis les températures 1, 2, 3 et 4 heures après l'administration des produits étudiés.
Les animaux sont répartis en lots de 4 animaux et reçoivent par voie intrapéritonéale la réserpine à une dose de 5 mg/kg. 17 heures après cette injection, on mesure la température corporelle de l'animal à l'aide d'une sonde thermocouple introduite dans le rectum; chaque lot reçoit ensuite la substance par voie intrapéritonéale. Le lot témoin reçoit la même quantité de solvant et par la même voie. La température corporelle est ensuite mesurée toutes les heures pendant 4 heures.
Les résultats sont rassemblés dans un tableau récapitulatif-où sont indiqués : • - la température moyenne pour chaque lot relevée 17 heures après l'injection de la réserpine, • - la moyenne des variations de température pour chaque lot relevées 1,2, 3 et 4 heures après l'injection de la substance étudiée, • - la somme des variations de températures pendant 4 heures, • - le pourcentage d'augmentation de la température pour chaque produit par rapport aux témoins.

Souris [3] = assay: tetrabenazine hypothermia; assay type: in vivo
Procedure: as §1
Les produits sont injectés 30 minutes avant l'administration de tétrabénazine.
Les températures sont relevées aux temps : 0, 30 minutes, 60 minutes, 90 minutes et 120 minutes.
as §2
Les températures sont relevées avant l'injection de tétrabénazine, 30 minutes, 60 minutes, 90 minutes et 120 minutes après.
as §3

[4] = acute toxicity in the mouse, intraperitoneal; assay type: in vivo, Souris; settings: mouse, in vivo, ip, voie intrapéritonéale; for LD50 at 48 h: souris femelles, read-out: DL 50; for mortality at 48 h: read-out: Mortalité %
Excerpt: (§4) Les produits ont été administrés par voie intrapéritonéale à des souris femelles dont le poids variait de 18 à 30 g.
(§5) Les animaux injectés ont été maintenus dans une salle thermostatée, nourris et abreuvés à volonté.
(§6) La mortalité a été relevée à 1 heure, 4 heures, 24 heures et 48 heures.

souris femelles = assay: acute toxicity in the mouse, intraperitoneal; assay type: in vivo; settings: voie intrapéritonéale
Excerpt: as §4, §5, §6

[5] = product i.p. 50 mg/kg 30 min before tétrabénazine 32 mg/kg i.v.
[6] = product i.p. 50 mg/kg 30 min before tétrabénazine 32 mg/kg i.v., score 0-4 per eye
[7] = 100 mg/kg, dead mice of the group
[8] = 150 mg/kg, dead mice of the group
[9] = 200 mg/kg, dead mice of the group
[10] = 250 mg/kg, dead mice of the group
[11] = product i.p. 100 mg/kg 30 min before tétrabénazine 32 mg/kg i.v.
[12] = product i.p. 100 mg/kg 30 min before tétrabénazine 32 mg/kg i.v., score 0-4 per eye
[13] = 500 mg/kg, dead mice of the group
[14] = 900 mg/kg, dead mice of the group
[15] = product i.p. 150 mg/kg 30 min before tétrabénazine 32 mg/kg i.v.
[16] = product i.p. 150 mg/kg 30 min before tétrabénazine 32 mg/kg i.v., score 0-4 per eye
[17] = 300 mg/kg, dead mice of the group
[18] = 750 mg/kg, dead mice of the group
[19] = 1500 mg/kg, dead mice of the group

CN(C)CCCN1c2ccccc2C2ON=C(c3ccccc3)C2c2ccccc21 (centres unmarked) [compound 3, (γ-diméthylaminopropyl)-8 phényl-3 trihydro-3a, 8,12b (dibenzo [b,f]isoxazolo [4,5-d])azépine]
inhibition in vivo at 50 mg/kg (Souris [1]; ip, 2 h, ptosis, product i.p. 50 mg/kg 30 min before tétrabénazine 32 mg/kg i.v., read-out: % de protection): 32%
Ptosis Total (Souris [1]; [5]): 20,4
Ptosis 30 minutes (Souris [1]; [6]): 1,6
Ptosis 60 minutes (Souris [1]; [6]): 5,2
Ptosis 90 minutes (Souris [1]; [6]): 6,8
Ptosis 120 minutes (Souris [1]; [6]): 6,8
change in vivo at 50 mg/kg (Souris [2]; ip, 4 h, product i.p. 50 mg/kg, read-out: % d'augmentation par rapport aux témoins): 125%
variation de température T= 2h (Souris [2]; product i.p. 50 mg/kg): +0,9
variation de température T=3h (Souris [2]; product i.p. 50 mg/kg): +0,9
variation de température T=4h (Souris [2]; product i.p. 50 mg/kg): +0,1
inhibition in vivo at 50 mg/kg (Souris [3]; ip, 2 h, hypothermie, product i.p. 50 mg/kg 30 min before tétrabénazine 32 mg/kg i.v., read-out: % de protection): 40%
Température après tétrabénazine 30 minutes (Souris [3]; [5]): -0,9
Température après tétrabénazine 60 minutes (Souris [3]; [5]): -1,2
Température après tétrabénazine 90 minutes (Souris [3]; [5]): -2,6
Température après tétrabénazine 120 minutes (Souris [3]; [5]): -0,4
Température après tétrabénazine Total (Souris [3]; [5]): -5,1
LD50 at 48 h [4]: 200 mg/kg
mortality at 48 h ([4]; 100 mg/kg): 0%
mortality at 48 h ([4]; 150 mg/kg): 0%
mortality at 48 h ([4]; 200 mg/kg): 40%
mortality at 48 h ([4]; 250 mg/kg): 100%
Mortalité en 1 heure (souris femelles; [7]): 0
Mortalité en 48 h. (souris femelles; [7]): 0
Mortalité en 1 heure (souris femelles; [8]): 0
Mortalité en 48 h. (souris femelles; [8]): 0
Mortalité en 1 heure (souris femelles; [9]): 2
Mortalité en 48 h. (souris femelles; [9]): 2
Mortalité en 1 heure (souris femelles; [10]): 5
Mortalité en 48 h. (souris femelles; [10]): 5

CN(C)CCN1c2ccccc2C2C(c3ccccc3)=NN(c3ccccc3)C2c2ccccc21 (stereo not drawn) [compound 7, (β-diméthylaminoéthyl)-8 diphényl-1,3 tétrahydro-1,3a, 8, 12b (dibenzo [b,f]pyrazolo [3,4-d]) azépine]
inhibition in vivo at 100 mg/kg (Souris [1]; ip, 2 h, ptosis, product i.p. 100 mg/kg 30 min before tétrabénazine 32 mg/kg i.v., read-out: % de protection): 14%
Ptosis Total (Souris [1]; [11]): 25,8
Ptosis 30 minutes (Souris [1]; [12]): 3,8
Ptosis 60 minutes (Souris [1]; [12]): 7
Ptosis 90 minutes (Souris [1]; [12]): 7
Ptosis 120 minutes (Souris [1]; [12]): 8
change in vivo at 100 mg/kg (Souris [2]; ip, 4 h, product i.p. 100 mg/kg, read-out: % d'augmentation par rapport aux témoins): 125%
variation de température T= 2h (Souris [2]; product i.p. 100 mg/kg): +1,1
variation de température T=3h (Souris [2]; product i.p. 100 mg/kg): +0,7
variation de température T=4h (Souris [2]; product i.p. 100 mg/kg): +0,1
inhibition in vivo at 100 mg/kg (Souris [3]; ip, 2 h, hypothermie, product i.p. 100 mg/kg 30 min before tétrabénazine 32 mg/kg i.v., read-out: % de protection): 26%
Température après tétrabénazine 30 minutes (Souris [3]; [11]): -3,2
Température après tétrabénazine 60 minutes (Souris [3]; [11]): -1,3
Température après tétrabénazine 90 minutes (Souris [3]; [11]): -1
Température après tétrabénazine 120 minutes (Souris [3]; [11]): -0,8
Température après tétrabénazine Total (Souris [3]; [11]): -6,3
LD50 at 48 h [4]: > 500 mg/kg
mortality at 48 h ([4]; 250 mg/kg): 0%
mortality at 48 h ([4]; 500 mg/kg): 0%
Mortalité en 1 heure (souris femelles; [10]): 0
Mortalité en 48 h. (souris femelles; [10]): 0
Mortalité en 1 heure (souris femelles; [13]): 0
Mortalité en 48 h. (souris femelles; [13]): 0
Mortalité en 1 heure (souris femelles; [14]): 1
Mortalité en 48 h. (souris femelles; [14]): 1

( [1'-(β-hydroxyéthyl-4') pipérazinyl]-3propyl)-8 diphényl-1,3 tétrahydro-1,3a, 8,12b(dibenzo[b,f] pyrazolo [3,4-d])azépine [compound 10]
Ptosis Total (Souris [1]; [15]): 20,8
Ptosis 30 minutes (Souris [1]; [16]): 1
Ptosis 60 minutes (Souris [1]; [16]): 6
Ptosis 90 minutes (Souris [1]; [16]): 5,8
Ptosis 120 minutes (Souris [1]; [16]): 8
Ptosis T = 0 (Souris [1]; product i.p. 150 mg/kg, before tétrabénazine, score 0-4 per eye): 0
% de protection (Souris [1]; ptosis, product i.p. 150 mg/kg 30 min before tétrabénazine 32 mg/kg i.v.): 31%
% d'augmentation par rapport aux témoins (Souris [2]; product i.p. 150 mg/kg): 205%
variation de température T= 2h (Souris [2]; product i.p. 150 mg/kg): +2,4
variation de température T=3h (Souris [2]; product i.p. 150 mg/kg): +1,4
variation de température T=4h (Souris [2]; product i.p. 150 mg/kg): +0,6
% de protection (Souris [3]; hypothermie, product i.p. 150 mg/kg 30 min before tétrabénazine 32 mg/kg i.v.): 53%
Température après tétrabénazine 30 minutes (Souris [3]; [15]): -1,7
Température après tétrabénazine 60 minutes (Souris [3]; [15]): -1,9
Température après tétrabénazine 90 minutes (Souris [3]; [15]): +0,6
Température après tétrabénazine 120 minutes (Souris [3]; [15]): -1
Température après tétrabénazine Total (Souris [3]; [15]): -4
DL 50 (souris femelles; souris femelles, 2880 min): >750 mg/kg
Mortalité % (souris femelles; 200 mg/kg, 2880 min): 0%
Mortalité en 1 heure (souris femelles; [9]): 0
Mortalité en 48 h. (souris femelles; [9]): 0
Mortalité % (souris femelles; 300 mg/kg, 2880 min): 0%
Mortalité en 1 heure (souris femelles; [17]): 0
Mortalité en 48 h. (souris femelles; [17]): 0
Mortalité % (souris femelles; 750 mg/kg, 2880 min): 0%
Mortalité en 1 heure (souris femelles; [18]): 0
Mortalité en 48 h. (souris femelles; [18]): 0
Mortalité en 1 heure (souris femelles; [19]): 0
Mortalité en 48 heures (souris femelles; [19]): 1
